Results taken from the supplement of paper PMC10627819.

What was measured:
S. aureus Newman [1] = test: Bliss interaction score (quartile over a dose matrix) (fitness difference); higher = more antagonism (negative = synergy)
Method in brief: (§1)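 Fitness was OD595 at entry into stationary phase divided by the plate's robust no-drug mean and capped at 1; single-drug fitness was inferred from combination data. The Bliss score is observed minus expected (product) fitness, summarised by quartiles over technical, biological and donor/recipient replicates.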

S. pneumoniae D39V = test: as above
Method in brief: as §1

S. aureus DSM 20231 [2] = test: as above
Method in brief: as §1

B. subtilis 168 [3] = test: as above
Method in brief: as §1

S. aureus DSM 20231 [4] = test: fitness (endpoint OD595 vs no drug) (fraction); higher = more growth
Method in brief: (§2)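 With the first reading as background, OD595 was measured every 30 min for 14 h in 384-well plates kept at 37 °C and inoculated at OD595 0.01. TSB, LB Lennox or CY was the medium. Fitness is the optical density at the transition into stationary phase divided by the robust mean of no-drug control wells, with a cap of 1.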

B. subtilis 168 [5] = test: as above
Method in brief: as §2

S. aureus Newman [6] = test: as above
Method in brief: as §2
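Throughout, for Bliss interaction score (quartile over a dose matrix): first quartile when negative (synergy) and third quartile when positive (antagonism).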

CC[C@H]1OC(=O)[C@H](C)[C@@H](O[C@H]2C[C@@](C)(OC)[C@@H](O)[C@H](C)O2)[C@H](C)[C@@H](O[C@@H]2O[C@H](C)C[C@H](N(C)C)[C@H]2O)[C@](C)(O)C[C@@H](C)CN(C)[C@H](C)[C@@H](O)[C@]1(C)O [Azithromycin] + CC(=O)NC[C@H]1CN(c2ccc(N3CCOCC3)c(F)c2)C(=O)O1 [Linezolid]
Details	Bliss interaction score
B. subtilis 168 [3]	-0.0849
S. aureus DSM 20231 [2]	-0.0673
S. aureus Newman [1]	-0.0582
S. pneumoniae D39V	-0.0318

fitness
Details	first compound 0.125 µg/mL	first compound 0.25 µg/mL	first compound 0.5 µg/mL	first compound 1 µg/mL
B. subtilis 168 [5], partner 0.25 µg/mL	–	–	0.106	–
B. subtilis 168 [5], partner 0.5 µg/mL	–	0.0659	0.0597	0.0407
S. aureus DSM 20231 [4], partner 0.125 µg/mL	0.768	0.744	–	–
S. aureus DSM 20231 [4], partner 0.25 µg/mL	0.608	0.557	0.191	–
S. aureus DSM 20231 [4], partner 0.5 µg/mL	–	0.151	0.0625	–

one replicate
Details	fitness
B. subtilis 168 [5], first compound 0.5 µg/mL, partner 0.0625 µg/mL	0.759
B. subtilis 168 [5], first compound 1 µg/mL, partner 0.0625 µg/mL	0.287
B. subtilis 168 [5], first compound 2 µg/mL, partner 0.0625 µg/mL	0.023
B. subtilis 168 [5], first compound 2 µg/mL, partner 0.125 µg/mL	0
B. subtilis 168 [5], first compound 2 µg/mL, partner 0.25 µg/mL	0.029
S. aureus DSM 20231 [4], first compound 0.125 µg/mL, partner 1 µg/mL	0.0489
S. aureus DSM 20231 [4], first compound 0.25 µg/mL, partner 1 µg/mL	0.0402
S. aureus DSM 20231 [4], first compound 0.5 µg/mL, partner 1 µg/mL	0.0193

CC[C@H]1OC(=O)[C@H](C)[C@@H](O[C@H]2C[C@@](C)(OC)[C@@H](O)[C@H](C)O2)[C@H](C)[C@@H](O[C@@H]2O[C@H](C)C[C@H](N(C)C)[C@H]2O)[C@](C)(O)C[C@@H](C)CN(C)[C@H](C)[C@@H](O)[C@]1(C)O [Azithromycin] + CCCCCCCCCC(=O)N[C@@H]1[C@H]([C@@H]([C@H](O[C@H]1OC2=C3C=C4C=C2OC5=C(C=C(C=C5)[C@H]([C@H]6C(=O)N[C@@H](C7=C(C(=CC(=C7)O)OC8[C@H]([C@H]([C@@H]([C@H](O8)CO)O)O)O)C9=C(C=CC(=C9)[C@H](C(=O)N6)NC(=O)[C@@H]4NC(=O)[C@@H]1C2=CC(=CC(=C2)OC2=C(C=CC(=C2)[C@H](C(=O)N[C@H](CC2=CC(=C(O3)C=C2)Cl)C(=O)N1)N)O)O)O)C(=O)O)O[C@H]1[C@@H]([C@H]([C@@H]([C@H](O1)CO)O)O)NC(=O)C)Cl)CO)O)O [Teicoplanin]
main component drawn
Details	Bliss interaction score
B. subtilis 168 [3]	-0.0653
S. aureus DSM 20231 [2]	0.104
S. aureus Newman [1]	0.169
S. pneumoniae D39V	0.0706

fitness, main component drawn
Details	partner 0.1562 µg/mL	partner 0.3125 µg/mL	partner 0.625 µg/mL
S. aureus DSM 20231 [4], first compound 0.125 µg/mL	0.915	0.924	0.991
S. aureus DSM 20231 [4], first compound 0.25 µg/mL	0.935	0.987	≥ 1
S. aureus Newman [6], first compound 0.125 µg/mL	0.899	0.928	≥ 1
S. aureus Newman [6], first compound 0.25 µg/mL	0.978	0.974	0.775

fitness, S. aureus Newman [6], one replicate, main component drawn
Details	first compound 0.125 µg/mL	first compound 0.25 µg/mL	first compound 0.5 µg/mL
partner 0.62 µg/mL	0.799	0.998	0.863
partner 1.24 µg/mL	0.786	0.812	0.896
partner 2.48 µg/mL	0.57	0.55	0.579

CC[C@H]1OC(=O)[C@H](C)[C@@H](O[C@H]2C[C@@](C)(OC)[C@@H](O)[C@H](C)O2)[C@H](C)[C@@H](O[C@@H]2O[C@H](C)C[C@H](N(C)C)[C@H]2O)[C@](C)(O)C[C@@H](C)CN(C)[C@H](C)[C@@H](O)[C@]1(C)O [Azithromycin] + CCC[C@@H]1C[C@@H](C(=O)N[C@@H]([C@H]2O[C@H](SC)[C@H](O)[C@@H](O)[C@H]2O)[C@@H](C)O)N(C)C1 [Lincomycin]
Details	Bliss interaction score
B. subtilis 168 [3]	0.098
S. aureus DSM 20231 [2]	-0.0854
S. aureus Newman [1]	-0.105
S. pneumoniae D39V	0.0603

fitness
Details	partner 0.1 µg/mL	partner 0.2 µg/mL	partner 0.4 µg/mL	partner 0.8 µg/mL	partner 1.6 µg/mL
B. subtilis 168 [5], first compound 0.25 µg/mL	0.777	0.78	0.833	0.865	0.887
B. subtilis 168 [5], first compound 0.5 µg/mL	0.82	0.817	0.876	0.797	0.77
B. subtilis 168 [5], first compound 1 µg/mL	0.714	0.734	–	–	–
S. aureus DSM 20231 [4], first compound 0.125 µg/mL	0.873	0.754	–	–	–
S. aureus DSM 20231 [4], first compound 0.25 µg/mL	0.89	0.583	–	–	–
S. aureus DSM 20231 [4], first compound 0.5 µg/mL	0.386	0.147	0.106	–	–

B. subtilis 168 [5], first compound 2 µg/mL, one replicate
Details	fitness
partner 0.1 µg/mL	0.401
partner 0.2 µg/mL	0.24
partner 0.4 µg/mL	0.202

CC[C@H]1OC(=O)[C@H](C)[C@@H](O[C@H]2C[C@@](C)(OC)[C@@H](O)[C@H](C)O2)[C@H](C)[C@@H](O[C@@H]2O[C@H](C)C[C@H](N(C)C)[C@H]2O)[C@](C)(O)C[C@@H](C)CN(C)[C@H](C)[C@@H](O)[C@]1(C)O [Azithromycin] + CN[C@H](CC(C)C)C(=O)N[C@H]1C(=O)N[C@@H](CC(N)=O)C(=O)N[C@H]2C(=O)N[C@H]3C(=O)N[C@H](C(=O)N[C@H](C(=O)O)c4cc(O)cc(O)c4-c4cc3ccc4O)[C@H](O)c3ccc(c(Cl)c3)Oc3cc2cc(c3O[C@@H]2O[C@H](CO)[C@@H](O)[C@H](O)[C@H]2O[C@H]2C[C@](C)(N)[C@H](O)[C@H](C)O2)Oc2ccc(cc2Cl)[C@H]1O [Vancomycin]
Details	Bliss interaction score
B. subtilis 168 [3]	-0.0288
S. aureus DSM 20231 [2]	0.0943
S. aureus Newman [1]	-0.104
S. pneumoniae D39V	-0.0427

fitness
Details	partner 0.1875 µg/mL	partner 0.375 µg/mL	partner 0.75 µg/mL
S. aureus DSM 20231 [4], first compound 0.125 µg/mL	0.846	0.875	0.898
S. aureus DSM 20231 [4], first compound 0.25 µg/mL	0.819	0.874	0.829
S. aureus Newman [6], first compound 0.125 µg/mL	0.909	0.906	0.882
S. aureus Newman [6], first compound 0.25 µg/mL	0.855	0.893	0.862

CC[C@H]1OC(=O)[C@H](C)[C@@H](O[C@H]2C[C@@](C)(OC)[C@@H](O)[C@H](C)O2)[C@H](C)[C@@H](O[C@@H]2O[C@H](C)C[C@H](N(C)C)[C@H]2O)[C@](C)(O)C[C@@H](C)CN(C)[C@H](C)[C@@H](O)[C@]1(C)O [Azithromycin] + CO/N=C(\C(=O)N[C@@H]1C(=O)N2C(C(=O)[O-])=C(C[N+]3(C)CCCC3)CS[C@H]12)c1csc(N)n1 [Cefepime]
Details	Bliss interaction score
B. subtilis 168 [3]	0.0866
S. aureus DSM 20231 [2]	0.103
S. aureus Newman [1]	0.0874
S. pneumoniae D39V	0.112

fitness
Details	first compound 0.125 µg/mL	first compound 0.25 µg/mL	first compound 0.5 µg/mL
S. aureus DSM 20231 [4], partner 0.125 µg/mL	0.842	0.858	–
S. aureus DSM 20231 [4], partner 0.25 µg/mL	0.818	0.838	–
S. aureus DSM 20231 [4], partner 0.5 µg/mL	0.833	0.843	0.565
S. aureus Newman [6], partner 0.125 µg/mL	0.872	0.927	0.752
S. aureus Newman [6], partner 0.25 µg/mL	0.799	0.872	0.669
S. aureus Newman [6], partner 0.5 µg/mL	0.794	0.809	0.551
